Measurements published in patent US6117859A, “Method of relieving chronic inflammation by using 5-alkylsulfonylsalicylanilides” (The Research Foundation of State University of New York, priority 1999, dated 2000).
Entries after “also recorded” stand apart in the source; their conditions may differ.

What was measured:
[1] = Solubility of representative compounds in various solvent systems; assay type: physicochemical
Protocol: The solubility of representative compounds of this invention in various solvent systems was determined. The solvents included ethanol, propylene glycol, SLS, Tween 80™ and combinations thereof.

[2] = test system: TPA induced mouse ear edema; experiment: Acute TPA mouse ear inflammation assay, edema (ear weight); assay type: in vivo
Source text: The anti-inflammatory effect of selected compounds of this invention were compared to those of Triclosan™ and hydrocortisone in a modified […] (TPA) mouse ear inflammation assay. TPA was used as an inflammogen rather than croton oil because TPA gives a well characterized inflammatory response at very low concentrations. […] This model can therefore be used to study the pharmacokinetics, clinical efficacy and adverse side effects of anti-inflammatory agents. To quantitate inflammation, ear punches from treated animals were used to measure increased ear mass (edema) and myeloperoxidase (MPO) activity. For the inhibition studies, ear biopsies were weighed six hours after treatment with TPA and the simultaneous application of the compound of the present invention. All the compounds were diluted in acetone. Following this, the biopsies were frozen and subsequently used to measure inhibition of MPO activity, an estimate of polymorphonuclear (PMN) […] activity in the affected area. Percent inhibition of edema was calculated as [c-t]/c x 100, where c and t are increases in ear weight in control and treated mice, respectively.
Initially a dose-response curve for TPA-induced mouse ear edema was generated in order to determine the concentration of TPA to be employed in the inhibition studies. TPA produced a theoretical dose-response curve for edema with an ED50 of 80 ng/ear and an ED90 of 200 ng/ear in two separate experiments. ED50 is the dose at which 50% of the maximum effect was observed while ED90 is the dose at which 90% of the maximum effect was observed. […] The ED50 values for the compounds tested are as follows: […]

[3] = test system: TPA treated mouse ear skin; experiment: Histopathology of ear biopsies after multiple doses of TPA (epidermal thickness, dermal cellularity); assay type: in vivo, mouse (female CD-1)
Protocol: The assay used female CD-1 mice (7-9 weeks of age). Following a 2-week quarantine, mice were randomly assigned to test groups (5 mice/groups). TPA (10 uL of 0.01 TPA in acetone) was administered to both the inner and outer surface of each ear (2μg/ear) on day 0,2,4,7, and 9 on protocol. On Day 7,8 and 9, two applications of test article were applied to each ear 2 and 4 hours after dosing with TPA. The test articles were administered in 10 uL aliquots to both the inner and outer surface of each ear (20 μl total/dose). The candidate drugs were tested at several different concentrations (e.g., 5, 1.25, and 0.125 mg/ear) to determine a maximum effective dose within a range that could be effectively applied. Hydrocortisone-17-valerate (HCV, 20μg/ear) was employed as a positive control. Mice were sacrificed at Day 10 on protocol and uniform punch biopsies (approximately 8 mm dia.) were taken from each ear. While on protocol, dermal irritation was scored semiquantitatively at Day 1,3,5,8, and 10.
Inhibition of TPA stimulated increased ear weight was used as an initial measure of efficacy for all of the agents tested. One biopsy from each mouse was also quick frozen and stored at -70° C. for later assay of myleoperoxidase, an enzyme associated with infiltrating PMN, or other measure of efficacy. The remaining biopsy from each mouse treated with Trifluorosal or HCV was fixed in formalin and processed for histopathologic evaluation, including measurement of cellular infiltration (PMNs, endothelial cells, macrophages) and epidermal thickness at 20 random sites along the length of the specimen.
In order to confirm the subjective observations, quantitative determinations of 3 parameters (epidermal thickness, dermal thickness, and dermal cellularity) in the skin of negative controls (acetone), positive controls (TPA), and TPA treated skin treated with 3 doses of test article (Trifluorosal) and hydrocortisone were carried out. Epidermal thickness reflects the reactive proliferative activity induced by TPA in the […]: dermal thickness reflects primarily Ad edema but may also be affected by other phenomena, such as formation of granulation tissue, collagen synthesis, the activity of myofibroblasts, etc. Cellularity of the dermis is frequently used as a surrogate marker of inflammatory changes in the dermis.
Determination of the epidermal thickness was performed under the microscope with a calibrated scale placed in the eyepiece. Ten determinations were carried out in the epidermis covering the outside of the ear using a 40× objective and a 10× eyepiece (400× total). The measurements were taken from the basal side of the basal layer (basement membrane) to the outer side of the last nucleated cell of the […]. The average of the 10 measurements expressed in microns was entered in the table.
Determination of dermal thickness was performed using a similar technique. To avoid variability caused by the difference in sizes between the base and tip of the ear, only 3 measurements were performed in the center of the sample. The measurements were performed from the basement membrane of the external and internal epithelial and therefore include, in addition to both dermis (external and internal), the cartilage.
Cellularity of the dermis was calculated by projecting a calibrated grid into the dermis and counting cells in the known area of the dermis. Areas of hair follicles or sebaceous glands were avoided. Five fields were counted and the results were adjusted to the number of cells in 1,000 square microns.
The results of individual animals were entered in the table and the averages and standard deviation were calculated using an EXCEL database. In addition, the results were also expressed as a percentage of the control (acetone treated). Furthermore, the percentage of inhibition of the test articles were calculated using the following formula: [formula]

[4] = Single dose oral tolerance in rats; assay type: in vivo, rat (male weaning Sprague-Dawley); details: single dose 2.5 or 0.75 g/kg in 5% CMC, 7 days
Protocol: To test for tolerance of the administered compounds, male weaning Sprague-Dawley rats were fed in a single dose of 2.5 or 0.75 g/kg of TMF-12, TMF-10, TMC-10 or TPC-10 in 5% carboxymethyl cellulose (CMC) or CMC alone. […] At completion of the 7 day observation period, necropsies were performed on all animals.

[5] = Lipophilicity; assay type: physicochemical; details: compared with AMCF3-8
Source text: By the term "partition coefficient" as used herein for the purposes of specification and claims is meant the log10 P where P is the ratio of the molar concentrations of the compositions of the composition in octanol-water system. Partition coefficient is a measure of the lipophilic character of the compound. A partition coefficient of 4 therefore means that the ratio of the concentration of the composition in octanol to the concentration in water is 10^4 or 10,000 to 1.

Work on `CCCCCCCCCCCCS(=O)(=O)c1ccc(O)c(C(=O)Nc2cccc(C(F)(F)F)c2)c1` [TMF-12] yielded a solubility ([1]; +0.5% tween 80) of 1340 µg/mL, a solubility ([1]; +1% sls) of 1660 µg/mL and a solubility ([1]; +1.5% tween 80) of 4290 µg/mL. The solubility ([1]; +2% SLS + 0.5% Tween 80) was 3540 µg/mL, the solubility ([1]; +2% SLS + 1.0% Tween 80) was 4010 µg/mL and the solubility ([1]; +2% SLS + 2.0% Tween 80) was 5860 µg/mL. The solubility ([1]; +2% sls) was 2930 µg/mL, the solubility ([1]; +3.0% tween 80) was 8340 µg/mL and the solubility ([1]; +4% sls) was 5740 µg/mL. For the same molecule, the solubility ([1]; aqueous buffer, pH 10 Na-buffer @ 22° C.) was less than 0.1 µg/mL, the “Solubility in anionic and nonionic surfactant solutions relative to AMCF3-8” value ([1]; compared with AMCF3-8) was “greater solubility than AMCF3-8” and the solubility ([1]; organic solvent or mixture, Ethanol, 22° C.) was 13600 µg/mL. It also gave a solubility ([1]; organic solvent or mixture, Propylene Glycol @ 20° C.) of 6660 µg/mL, a solubility ([1]; ph 10 na-buffer +0.5% sls, pH 10 Na-buffer @ 22° C. +0.5% SLS) of 1280 µg/mL and an ID50 edema ([2]; acute assay) of 18 μg/ear. The “Inhibition of TPA induced mouse ear edema (in words)” value ([2]; acute assay) was “inhibited TPA induced mouse ear edema in a dose-dependent fashion”, the “Relative anti-inflammatory potency (in words)” value ([2]; acute assay) was “most potent of all; also recorded: more potent than AMCF3-8” and the “Relative anti-inflammatory potency (in words)” value ([2]; acute assay, listed as Trifluorosal) was “the most potent 5-(n-alkylsulfonyl)salicylanilide in this assay”. For the same molecule, the “Potency relative to Salifluor” value ([2]; acute edema assay) was “ten”, the “% Inhibition, Dermal Cellularity” value ([3]; 1.25 mg/ear) was 24.6% and the “% Inhibition, Epidermal Thickness” value ([3]; 1.25 mg/ear) was 48.0%. The “% Inhibition, Dermal Cellularity” value ([3]; 2.50 mg/ear) was 64.3%, the “% Inhibition, Epidermal Thickness” value ([3]; 2.50 mg/ear) was 11.4% and the “% Inhibition, Dermal Cellularity” value ([3]; 5.00 mg/ear) was 47.6%. The “% Inhibition, Epidermal Thickness” value ([3]; 5.00 mg/ear) was 30.0%, the “Blood vessel prominence (in words)” value ([3]; histopathology) was “Blood vessels were not as prominent” and the “Cellularity of the dermis (in words)” value ([3]; histopathology, FIG. 1) was “reduced the epidermal thickness as well as the cellularity of the dermis”. For the same molecule, the “Epidermal thickness (in words)” value ([3]; histopathology, FIG. 1) was “reduced the epidermal thickness”, the Illness or deaths [4] was “No illness or deaths occurred” and the “Lipophilicity relative to AMCF3-8” value [5] was “more lipophilic than AMCF3-8”.
